Legend:
[1] = Stability of compounds in human liver microsome; format: in vitro ADME; conditions: human liver microsomes, NADPH, 37° C., sampling 0-120 min; read-out: Human liver microsome T1/2
Protocol: Compound to be tested: the compound to be tested (1 mg) was dissolved in DMSO (10 mL) to formulate to 0.1 mg/mL.
Internal standard compound: the internal standard compound (1 mg) was dissolved in DMSO (10 mL), 10 μL was taken and diluted to 10 mL to formulate to 100 ng/mL.
NADPH solution: NADPH (2.08 mg) was dissolved in PBS (50 μL) buffer to formulate to 50 mM.
Under the condition of ice bath, 1 mg of human liver microparticles was add to PBS (1 mL) buffer, then NADPH (20 μL) was added, and incubated at 37° C. for 5 min. 10 μL of the compound to be tested was added, and then samples were taken at 0, 15, 30, 60 and 120 min respectively. 10 μL of the solution was taken with a pipette each time and added to 490 μL of the solution containing the internal standard compound. The resulting solution was vortexed and then placed on ice, and then sampling at another time point continues. All samples were centrifuged at 10,000 rpm for 10 min, and the supernatant was taken for LC/MS testing. The metabolism of the compound in liver microsomes was calculated based on the peak area.

Mino cells = test: Inhibitory activity on Mino cell proliferation (MTS); format: cell-based; conditions: Homo sapiens, 168 h incubation
How it was run: (§1)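 Cells seeded at 10000/well, treated with compounds from 1000 nM (4-fold, 8 points) for 72 h (OCI-LY10) or 168 h (Mino) at 37° C. MTS added for 2 h, stopped with SDS, absorbance read at 490 and 650 nm; IC50 from dose-response fit.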

OCI-LY10 cells = test: Inhibitory activity on OCI-LY10 cell proliferation (MTS); format: cell-based; conditions: Homo sapiens, 72 h
How it was run: as §1

BTK = molecular target: T1, BTK (Homo sapiens, UniProt Q06187); test: BTK degradation activity test in Mino cells; format: cell-based; conditions: 16 h incubation, Western blot or Elisa
T1 construct: endogenous in cells; host or cells: Mino cells
T1 sequence (Q06187 whole entry): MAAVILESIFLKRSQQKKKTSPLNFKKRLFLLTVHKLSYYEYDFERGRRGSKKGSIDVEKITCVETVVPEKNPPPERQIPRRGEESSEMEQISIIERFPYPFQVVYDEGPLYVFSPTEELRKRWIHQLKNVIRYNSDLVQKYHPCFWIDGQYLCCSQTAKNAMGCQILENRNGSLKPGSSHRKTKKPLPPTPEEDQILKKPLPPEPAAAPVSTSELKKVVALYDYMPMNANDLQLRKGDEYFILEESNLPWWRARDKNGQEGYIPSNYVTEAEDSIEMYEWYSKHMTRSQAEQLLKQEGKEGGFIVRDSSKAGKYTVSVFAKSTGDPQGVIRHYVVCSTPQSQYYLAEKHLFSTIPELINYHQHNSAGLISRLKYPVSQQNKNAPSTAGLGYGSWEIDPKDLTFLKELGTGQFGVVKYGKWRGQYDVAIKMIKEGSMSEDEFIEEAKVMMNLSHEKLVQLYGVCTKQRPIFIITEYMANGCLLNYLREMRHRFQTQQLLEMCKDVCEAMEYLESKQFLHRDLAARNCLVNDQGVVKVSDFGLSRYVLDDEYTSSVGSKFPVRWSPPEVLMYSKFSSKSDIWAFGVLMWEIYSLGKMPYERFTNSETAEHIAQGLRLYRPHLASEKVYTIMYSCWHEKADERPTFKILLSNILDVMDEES
How it was run: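 Mino cells treated with a concentration series of compound for 16 h, then lysed; total protein by BCA. BTK quantified by Western blot or ELISA, degradation rate calculated against blank control, and DC50 fitted from the degradation curve.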

| half-life at 0.97 µg/mL [1] | IC50 (OCI-LY10 cells) | DC50 (BTK) | SMILES | IC50 (Mino cells) |
| --- | --- | --- | --- | --- |
| 55.6 min | < 0.06 nM | < 1 nM | CN1CCN([C@@H]2CCCN(c3nnc(C(N)=O)c(Nc4ccc(C5CCN(CC6CCN(c7cc8c(cc7F)C(=O)N(C7CCC(=O)NC7=O)C8=O)C6)CC5)cc4)n3)C2)C1=O (stereo partly drawn) [Compound 126, 5-((4-(1-((1-(2-(2,6-dioxopiperidin-3-yl)-6-fluoro-1,3-dioxoisoindolin-5-yl)pyrrolidin-3-yl)methyl)piperidin-4-yl)phenyl)amino)-3-((R)-3-(3-methyl-2-oxoimidazolin-1-yl)piperidin-1-yl)-1,2,4-triazin-6-carboxamide] | 2.99 nM |
| 43.2 min | 0.37 nM | < 1 nM | CN1CCN([C@@H]2CCCN(c3nnc(C(N)=O)c(Nc4ccc(C5CCN(CC6CCN(c7ccc8c(c7)C(=O)N(C7CCC(=O)NC7=O)C8=O)C6)CC5)c(F)c4)n3)C2)C1=O (stereo partly drawn) [Compound 128, 5-((4-(1-((1-(2-(2,6-dioxopiperidin-3-yl)-1,3-dioxoisoindolin-5-yl)pyrrolidin-3-yl)methyl)piperidin-4-yl)-3-fluorophenyl)amino)-3-((R)-3-(3-methyl-2-oxoimidazolin-1-yl)piperidin-1-yl)-1,2,4-triazin-6-carboxamide] | 1.93 nM |
| 31.7 min | 0.43 nM | < 1 nM | CN1CCN([C@@H]2CCCN(c3nnc(C(N)=O)c(Nc4ccc(N5CCN(CC6CCN(c7ccc8c(c7)C(=O)N(C7CCC(=O)NC7=O)C8=O)C6)CC5)c(Cl)c4)n3)C2)C1=O (stereo partly drawn) [Compound 133, 5-((3-chloro-4-(4-((1-(2-(2,6-dioxopiperidin-3-yl)-1,3-dioxoisoindolin-5-yl)pyrrolidin-3-yl)methyl)piperazin-1-yl)phenyl)amino)-3-((R)-3-(3-methyl-2-oxoimidazolin-1-yl)piperidin-1-yl)-1,2,4-triazin-6-carboxamide] | 3.91 nM |
| > 30 min |  | < 1 nM | CN1CCN([C@@H]2CCCN(c3nnc(C(N)=O)c(Nc4ccc(N5CCN(CC6CCN(c7ccc8c(c7)C(=O)N(C7CCC(=O)NC7=O)C8=O)CC6)CC5)c(F)c4)n3)C2)C1=O (stereo partly drawn) [Compound 134, 5-((4-(4-((1-(2-(2,6-dioxopiperidin-3-yl)-1,3-dioxoisoindolin-5-yl)piperidin-4-yl)methyl)piperazin-1-yl)-3-fluorophenyl)amino)-3-((R)-3-(3-methyl-2-oxoimidazolin-1-yl)piperidin-1-yl)-1,2,4-triazin-6-carboxamide] | 1.72 nM |
| > 30 min |  | < 1 nM | Cc1ccc(C(=O)N2CCC(CN3CCN(c4ccc(Nc5nc(N6CCC[C@@H](N7CCN(C)C7=O)C6)nnc5C(N)=O)cc4F)CC3)C2)cc1N1CCC(=O)NC1=O (stereo partly drawn) [Compound 150, 5-((4-(4-((1-(3-(2,4-dioxotetrahydropyrimidin-1(2H)-yl)-4-methylbenzoyl)pyrrolidin-3-yl)methyl)piperazin-1-yl)-3-fluorophenyl)amino)-3-((R)-3-(3-methyl-2-oxoimidazolin-1-yl)piperidin-1-yl)-1,2,4-triazin-6-carboxamide] | 1.91 nM |
| > 30 min |  | < 1 nM | CN1CCN([C@@H]2CCCN(c3nnc(C(N)=O)c(Nc4ccc(N5CCN(CC6CCN(c7ccc(C(=O)NC8CCC(=O)NC8=O)nc7)C6)CC5)c(F)c4)n3)C2)C1=O (stereo partly shown) [Compound 173] |  |
| > 30 min | 1.03 nM | < 1 nM | CN1CCN([C@@H]2CCCN(c3nnc(C(N)=O)c(Nc4ccc(N5CCN(CC6CCN(c7ccc(C(=O)NC8CCC(=O)NC8=O)cn7)C6)CC5)c(F)c4)n3)C2)C1=O (stereo partly drawn) [Compound 174, 5-((4-(4-((1-(5-((2,6-dioxopiperidin-3-yl)carbamoyl)pyridin-2-yl)pyrrolidin-3-yl)methyl)piperazin-1-yl)-3-fluorophenyl)amino)-3-((R)-3-(3-methyl-2-oxoimidazolidin-1-yl)piperidin-1-yl)-1,2,4-triazin-6-carboxamide] |  |
| > 30 min |  | < 1 nM | CN1CCN([C@@H]2CCCN(c3nnc(C(N)=O)c(Nc4ccc(N5CCN(CC6CCN(c7ccc(C(=O)NC8CCC(=O)NC8=O)c8c7OCO8)CC6)CC5)c(F)c4)n3)C2)C1=O (stereo partly shown) [Compound 177] | 2.99 nM |
| > 30 min |  | < 1 nM | CN1CCN([C@@H]2CCCN(c3nnc(C(N)=O)c(Nc4ccc(N5CCN(CC6CCN(c7ccc(C(=O)NC8CCC(=O)NC8=O)c8[nH]cnc78)CC6)CC5)c(F)c4)n3)C2)C1=O (stereo partly drawn) [Compound 179, 4-(4-((4-(4-((6-carbamoyl-3-((R)-3-(3-methyl-2-oxoimidazolidin-1-yl)piperidin-1-yl)-1,2,4-triazin-5-yl)amino)-2-fluorophenyl)piperazin-1-yl)methyl)piperidin-1-yl)-N-(2,6-dioxopiperidin-3-yl)-1Hbenzimidazol-7-carboxamide] | 1.47 nM |
| > 30 min | 0.78 nM | < 1 nM | COc1cc(N2CCC(CN3CCN(c4ccc(Nc5nc(N6CCC[C@@H](N7CCN(C)C7=O)C6)nnc5C(N)=O)cc4F)CC3)CC2)ccc1C(=O)NC1CCC(=O)NC1=O (stereo partly drawn) [Compound 181, 5-((4-(4-((1-(4-((2,6-dioxopiperidin-3-yl)carbamoyl)-3-methoxyphenyl)piperidin-4-yl)methyl)piperazin-1-yl)-3-fluorophenyl)amino)-3-((R)-3-(3-methyl-2-oxoimidazolidin-1-yl)piperidin-1-yl)-1,2,4-triazin-6-carboxamide] |  |
| > 30 min | 1.56 nM | < 1 nM | CN1CCN([C@@H]2CCCN(c3nnc(C(N)=O)c(Nc4ccc(N5CCN(CC6CCN(c7ccc(N8CCC(=O)NC8=O)c(F)c7)CC6)CC5)c(F)c4)n3)C2)C1=O [Compound 184, (R)-5-((4-(4-((1-(4-(2,4-dioxotetrahydropyrimidin-1(2H)-yl)-3-fluorophenyl)piperidin-4-yl)methyl)piperazin-1-yl)-3-fluorophenyl)amino)-3-(3-(3-methyl-2-oxoimidazolidin-1-yl)piperidin-1-yl)-1,2,4-triazin-6-carboxamide] |  |
| > 30 min | 0.57 nM | < 1 nM | CN1CCN([C@@H]2CCCN(c3nnc(C(N)=O)c(Nc4ccc(N5CCN(CC6CCN(c7ccc(NC8CCC(=O)NC8=O)c(F)c7)CC6)CC5)c(F)c4)n3)C2)C1=O (stereo partly drawn) [Compound 205, 5-((4-(4-((1-(4-((2,6-dioxopiperidin-3-yl)amino)-3-fluorophenyl)piperidin-4-yl)methyl)piperazin-1-yl)-3-fluorophenyl)amino)-3-((R)-3-(3-methyl-2-oxoimidazolidin-1-yl)piperidin-1-yl)-1,2,4-triazin-6-carboxamide] |  |
| > 30 min |  | < 1 nM | CN1CCN([C@@H]2CCCN(c3nnc(C(N)=O)c(Nc4ccc(N5CCN(CC6CCN(c7ccc8c(c7)n(C)c(=O)n8C7CCC(=O)NC7=O)C6)CC5)c(F)c4)n3)C2)C1=O (stereo partly drawn) [Compound 218, 5-((4-(4-((1-(1-(2,6-dioxopiperidin-3-yl)-3-methyl-2-oxo-2,3-dihydro-H-benzo[d]imidazol-5-yl)pyrrolidin-3-yl)methyl)piperazin-1-yl)-3-fluorophenyl)amino)-3-((R)-3-(3-methyl-2-oxoimidazolidin-1-yl)piperidin-1-yl)-1,2,4-triazin-6-carboxamide] |  |
| > 30 min |  | < 1 nM | CN1CCN([C@@H]2CCCN(c3nnc(C(N)=O)c(Nc4ccc(N5CCN(CC6CCN(c7ccc8c9c([nH]c8c7)C(=O)N(C7CCC(=O)NC7=O)C9)CC6)CC5)c(F)c4)n3)C2)C1=O (stereo partly drawn) [Compound 222, 5-((4-(4-((1-(2-(2,6-dioxopiperidin-3-yl)-3-oxo-1,2,3,4-tetrahydropyrrolo[3,4-b]indol-6-yl)piperidin-4-yl)methyl)piperazin-1-yl)-3-fluorophenyl)amino)-3-((R)-3-(3-methyl-2-oxoimidazolidin-1-yl)piperidin-1-yl)-1,2,4-triazin-6-carboxamide] | 4.15 nM |
| > 30 min | 0.83 nM | < 1 nM | CN1CCN([C@@H]2CCCN(c3nnc(C(N)=O)c(Nc4ccc(N5CCN(CC6CCN(c7ccc8c(=O)n(C9CCC(=O)NC9=O)ccc8c7)CC6)CC5)c(F)c4)n3)C2)C1=O (stereo partly drawn) [Compound 232, 5-((4-(4-((1-(2-(2,6-dioxopiperidin-3-yl)-1-oxo-1,2-dihydroisoquinolin-6-yl)piperidin-4-yl)methyl)piperazin-1-yl)-3-fluorophenyl)amino)-3-((R)-3-(3-methyl-2-oxoimidazolidin-1-yl)piperidin-1-yl)-1,2,4-triazin-6-carboxamide] |  |
